From patent US4663450A, “Optically active cephalosporin analogs” (Kyowa Hakko Kogyo Co., Ltd., priority 1979, dated 1987)
Values after ≈ are worked out from the molar mass of the structure shown.

How the values were obtained:
Assay in all cases: Heart Infusion Agar Dilution Method, antimicrobial activity
Format in all cases: cell-based
[1] = system: Escherichia coli GN2411-5; details: pH 7.2, Example 6
Source text: (§1) Antimicrobial activities of the compound obtained in Example 1 are as follows. Heart Infusion Agar Dilution Method (pH 7.2) is used.
(§2) Antimicrobial activities of the compound obtained in Example 4 and 5 are as follows. Heart Infusion Agar Dilution Method (pH 7.2) is used. Cefazolin is used as a control.

Proteus morganii KY 4298 = details: Morganella morganii, KY4298, pH 7.2, Example 6
Source text: as §1, §2

Proteus rettgeri KY 4289 = details: Providencia rettgeri, KY4289; Proteus retteri KY 4289; pH 7.2; Example 6
Source text: as §1, §2

Proteus vulgaris 6897 = details: pH 7.2, Example 6
Source text: as §1, §2

[2] = system: Pseudomonas aeruginosa 145; details: pH 7.2, Example 6
Source text: as §1, §2

Pseudomonas putida 264 = details: pH 7.2, Example 6
Source text: as §1, §2

[3] = system: Staphylococcus aureus 209-P; details: pH 7.2, Example 6
Source text: as §1, §2

[4] = system: Staphylococcus aureus Smith; details: pH 7.2, Example 6
Source text: as §1, §2

[5] = system: Staphylococcus epidermidis; details: pH 7.2, Example 6
Source text: as §1, §2

Escherichia coli Juhl = details: pH 7.2, Example 6
Source text: (§3) Heart Infusion Agar Dilution Method (pH 7.2) is used.
as §3

Escherichia coli NIHJC-2 = details: NIHJC2, pH 7.2, Example 6
Source text: as §3, §3

[6] = system: Klebsiella pneumoniae 8045; details: pH 7.2, Example 6
Source text: as §3, §3

[7] = system: Klebsiella pneumoniae Y-60; details: Y60, pH 7.2, Example 6
Source text: as §3, §3

Proteus mirabilis 1287 = details: pH 7.2, Example 6
Source text: as §3, §3

[8] = system: Pseudomonas aeruginosa #1
Source text: as §3, §3

Serratia marcescens T-26 = details: T26, pH 7.2, Example 6
Source text: as §3, §3

Serratia marcescens T-55 = details: T55, pH 7.2, Example 6
Source text: as §3, §3

Row | MIC [1] [µg/mL] | MIC (Proteus morganii KY 4298) [µg/mL] | MIC (Proteus rettgeri KY 4289) [µg/mL] | MIC (Proteus vulgaris 6897) [µg/mL] | MIC [2] [µg/mL] | MIC (Pseudomonas putida 264) [µg/mL] | MIC [3] [µg/mL] | MIC [4] [µg/mL] | MIC [5] [µg/mL] | MIC (Escherichia coli Juhl) [µg/mL] | MIC (Escherichia coli NIHJC-2) [µg/mL] | MIC [6] [µg/mL] | MIC [7] [µg/mL] | MIC (Proteus mirabilis 1287) [µg/mL] | MIC ([8]; pH 7.2, Example 6) [µg/mL] | MIC (Serratia marcescens T-26) [µg/mL] | MIC (Serratia marcescens T-55) [µg/mL] | MIC ([8]; pH 7.2) [µg/mL] | SMILES
1 | 0.78 (≈ 1.69 µM) | 1.56 (≈ 3.39 µM) | ≤ 0.01 | 0.2 (≈ 0.435 µM) | 25 (≈ 54.3 µM) | 0.2 (≈ 0.435 µM) | 50 (≈ 109 µM) | 50 (≈ 109 µM) | 100 (≈ 217 µM) | 3.12 (≈ 6.78 µM) | 3.12 (≈ 6.78 µM) | 0.78 (≈ 1.69 µM) | 1.56 (≈ 3.39 µM) | 1.56 (≈ 3.39 µM) |  |  |  |  | CO/N=C(\C(=O)N[C@@H]1C(=O)N2C(C(=O)O)=C[C@@H](O)C[C@H]12)c1nc(N)sc1Br [Example 5, (4S, 6R, 7S)-7-[2-(2-amino-5-bromo-4-thiazolyl)-2-syn-methoxyiminoacetamido]-4-hydroxy-1-azabicyclo[4,2,0]oct-2-en-8-on-2-carboxylic acid]
2 | 0.2 (≈ 0.441 µM) | 0.1 (≈ 0.221 µM) | ≤ 0.01 | ≤ 0.01 | 3.12 (≈ 6.88 µM) | ≤ 0.01 | > 100 | > 100 | > 100 | 0.4 (≈ 0.882 µM) | 0.78 (≈ 1.72 µM) | 0.2 (≈ 0.441 µM) | 0.2 (≈ 0.441 µM) | 0.02 (≈ 0.0441 µM) | 0.78 (≈ 1.72 µM) | 0.78 (≈ 1.72 µM) | 0.4 (≈ 0.882 µM) |  | CC(C)(O/N=C(\C(=O)N[C@@H]1C(=O)N2C(C(=O)O)=C[C@@H](O)C[C@H]12)c1csc(N)n1)C(=O)O [Example 4, (4S, 6R, 7S)-7-[2-(2-amino-4-thiazolyl)-2-syn-(2-carboxyprop-2-oxyimino)acetamido]-4-hydroxy-1-azabicyclo[4,2,0]oct-2-en-8-on-2-carboxylic acid]
3 |  |  |  |  |  |  |  |  |  |  |  |  |  |  |  |  |  | 0.73 (≈ 1.91 µM) | CO/N=C(\C(=O)N[C@@H]1C(=O)N2C(C(=O)O)=C[C@@H](O)C[C@H]12)c1csc(N)n1 [A, (4S, 6R, 7S)-7-[2-(2-amino-4-thiazolyl)-2-syn-methoxyiminoacetamido]-4-hydroxy-1-azabicyclo[4,2,0] oct-2-en-8-on-2-carboxylic acid]
4 |  |  | 12.5 (≈ 27.5 µM) | 50 (≈ 110 µM) |  | 50 (≈ 110 µM) | 0.05 (≈ 0.11 µM) | 0.2 (≈ 0.44 µM) |  |  |  |  |  |  |  |  |  |  | Cc1nnc(SCC2=C(C(=O)O)N3C(=O)[C@@H](NC(=O)Cn4cnnn4)[C@H]3SC2)s1 [Cefazolin, reference compound]
